Experimental data from patent publication US4018765A, “Process for the preparation of certain hydroperoxy derivatives” (Hoffmann-La Roche Inc., priority 1975, dated 1977).
Where two headings read alike, the source gives them in different places.

Legend:
Type in all cases: in vivo
[1] = test system: effects of β-(3,4-dihydroxyphenyl)-α-alanine (DOPA) in mice; assay: DOPA potentiation test in mice; conditions: Mus musculus, ip
Procedure: (§1) As has been indicated hereinabove the novel end products of this invention, i.e., the compounds of formula I and their pharmaceutically acceptable acid addition salts and the compounds of formula II-d and their pharmaceutically acceptable acid addition salts, are useful as psychostimulants. When administered, for example, orally, or animals such as mice they produce a direct-acting stimulant effect of long duration in single doses in amounts ranging from 0.03 mg/kg to 50 mg/kg. […] Exp. Path. and Pharm., Vol. 140, page 237). The compounds of this invention have psychostimulant effects qualitatively similar in many respect to those of imipramine and amphetamine which are wellknown for their therapeutic uses and properties.

[2] = test system: hypothermia induced by reserpine in mice; assay: reversal of hypothermia induced by reserpine in mice; conditions: Mus musculus, po, reserpine 10 mg/kg s.c., read-out: dose that reversed the hypothermia and hypometabolic effects induced by reserpine
Procedure: as §1

mice [3] = assay: psychostimulant activity (pharmacological tests in animals such as mice); conditions: similarly tested
Procedure: as §1

dogs = assay: blood pressure in dogs; conditions: 4 mg/kg i.v.
Procedure: (§2) In addition to their use as psychostimulants, the compounds of formulas I and II-d are also useful as analgesic agents. […] For example, 2-(2-benzoylphenyl)-2-imadazoline in dogs at 4 mg/kg i.v. produced an increase in blood pressure of 10 mm. Hg after 2 minutes followed by gradual increase to 25 mm. Hg.

mice [4] = assay: writhing test in mice (analgesic); conditions: p.o.
Procedure: as §2

unanesthetized cat = unanesthetized cat test for muscle relaxants; conditions: p.o.
Procedure: as §2

[5] = test system: ptosis induced by tetrabenzene in mice; assay: prevention of ptosis induced by tetrabenzene (tetrabenazene) in mice; conditions: Mus musculus, po, read-out: dose that prevented the ptosis induced by tetrabenzene
Procedure: as §1

animals = assay: analgesic properties (pharmacological tests in animals); conditions: based on the pharmacological tests in animals
Procedure: as §2

[6] = comparison drugs, read-out: dose showing psychostimulant activity in the DOPA potentiation test
[7] = mice, i.p., read-out: dose that potentiated the effects of DOPA

CC(N)Cc1ccccc1 (centres unmarked) [amphetamine, reference compound]
minimal effective dose [1, 6]: 1 mg/kg

OC1(c2ccccc2)c2ccccc2C2=NCCCCN21 (centres unmarked) [Example 21, 2,3,4,5-tetrahydro-7-hydroxy-7-phenyl-7H-diazepino-[2,1-a]isoindole]
minimal effective dose [2]: 25 mg/kg | minimal effective dose [1, 7]: 7.5 mg/kg

CN(C)CCCN1c2ccccc2CCc2ccccc21 [imipramine, reference compound]
minimal effective dose [1, 6]: 10 mg/kg

OC1(c2ccc(Cl)cc2)c2ccccc2C2=NCCN21 (centres unmarked) [5-(4-chlorophenyl)-2,3-dihydro-5-hydroxy-5H-imidazo[2,1-a]-isoindole]
psychostimulant test result relative to 2-(2-benzoylphenyl)-2-imidazoline (mice [3]): qualitatively similar to 2-(2-benzoylphenyl)-2-imidazoline

COc1ccc(C2(O)c3ccccc3C3=NCCN32)cc1 (centres unmarked) [2,3-dihydro-5-hydroxy-5-(4-methoxyphenyl)-5H-imidazo[2,1-a]-isoindole]
psychostimulant test result relative to 2-(2-benzoylphenyl)-2-imidazoline (mice [3]): qualitatively similar to 2-(2-benzoylphenyl)-2-imidazoline

COC1(c2ccccc2)c2ccccc2C2=NCCN21 (centres unmarked) [Example 19, 2,3-dihydro-5-methoxy-5-phenyl-5H-imidazo[2,1-a]isoindole]
psychostimulant test result relative to 2-(2-benzoylphenyl)-2-imidazoline (mice [3]): qualitatively similar to 2-(2-benzoylphenyl)-2-imidazoline

O=C(c1ccccc1)c1ccccc1C1=NCCN1 [Example 10, 2-(2-benzoylphenyl)-2-imidazoline]
increase in blood pressure after 2 minutes (dogs; after 2 minutes): 10 mm. Hg | increase in blood pressure, following gradual increase (dogs; gradual increase after the first 2 minutes): 25 mm. Hg | dose with marked activity in the writhing test (mice [4]): 30.8 mg/kg | minimal effective dose [1, 7]: 6.25 mg/kg | dose active in the unanesthetized cat test for muscle relaxants (unanesthetized cat): 2.5 mg/kg | minimal effective dose [5]: 0.06 mg/kg | analgesic properties relative to phenylbutazone (animals): can be likened to the analgesic properties of phenylbutazone
